How the values were obtained:
human TLR7 = target: T1, human TLR7 (Homo sapiens, UniProt Q9NYK1); test: HEK reporter assay, HEK293 reporter cells expressing human TLR7; type: cell-based; settings: for EC50: HEK293 NFKB reporter cells expressing human TLR7, read-out: HEK293 hTLR7 EC50; for TLR7 activity after NHBoc modification of the dipropylamide, versus parent compound: Human HEK293 reporter cells, BZA-2 vs BZA-1, BZA-4 vs BZA-3 (FIG. 1B, 1D)
T1 construct: host or cells: HEK293 NF-kB reporter cells
T1 sequence (Q9NYK1 27-1049): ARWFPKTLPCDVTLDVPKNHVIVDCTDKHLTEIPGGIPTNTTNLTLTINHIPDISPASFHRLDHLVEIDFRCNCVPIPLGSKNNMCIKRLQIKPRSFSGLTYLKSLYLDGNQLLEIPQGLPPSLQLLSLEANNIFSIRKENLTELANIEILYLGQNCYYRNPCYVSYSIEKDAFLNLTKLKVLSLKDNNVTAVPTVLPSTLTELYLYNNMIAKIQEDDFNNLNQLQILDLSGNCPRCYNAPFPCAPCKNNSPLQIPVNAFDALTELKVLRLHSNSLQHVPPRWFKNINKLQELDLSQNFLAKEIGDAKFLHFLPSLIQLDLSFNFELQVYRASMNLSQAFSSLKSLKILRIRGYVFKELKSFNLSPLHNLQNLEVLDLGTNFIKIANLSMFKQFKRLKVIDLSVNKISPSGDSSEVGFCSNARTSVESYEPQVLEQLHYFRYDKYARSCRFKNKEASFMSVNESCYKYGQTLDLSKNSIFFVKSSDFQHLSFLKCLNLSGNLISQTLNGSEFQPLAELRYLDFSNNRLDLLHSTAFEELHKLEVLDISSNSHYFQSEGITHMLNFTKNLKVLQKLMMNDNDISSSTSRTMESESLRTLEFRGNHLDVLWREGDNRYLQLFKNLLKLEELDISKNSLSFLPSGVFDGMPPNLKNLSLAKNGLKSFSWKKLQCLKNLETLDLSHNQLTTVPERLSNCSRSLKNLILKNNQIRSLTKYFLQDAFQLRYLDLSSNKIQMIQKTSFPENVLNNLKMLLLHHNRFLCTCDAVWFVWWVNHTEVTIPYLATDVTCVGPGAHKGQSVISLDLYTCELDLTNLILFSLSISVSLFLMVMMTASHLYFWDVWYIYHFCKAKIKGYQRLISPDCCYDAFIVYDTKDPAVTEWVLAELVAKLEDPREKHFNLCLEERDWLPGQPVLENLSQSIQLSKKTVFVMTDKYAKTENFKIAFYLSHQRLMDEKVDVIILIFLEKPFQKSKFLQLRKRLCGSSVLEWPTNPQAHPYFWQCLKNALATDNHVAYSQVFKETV
Experimental: Each compound was characterized by mass spectrometry and shown to have the mass indicated. Activity against HEK293 NFKB reporter cells expressing human TLR7 or human TLR8 was measured according to Example 30.
(§1) HEK293 reporter cells expressing human TLR7 or human TLR8 were purchased from Invivogen and vendor protocols were followed for cellular propagation and experimentation. Briefly, cells were grown to 80-85% confluence at 5% CO2 in DMEM supplemented with 10% FBS, Zeocin, and Blasticidin. Cells were then seeded in 96-well flat plates at 4×10^4 cells/well with substrate containing HEK detection medium and immunostimulatory molecules. Activity was measured using a plate reader at 620-655 nm wavelength.

human TLR8 = target: T2, human TLR8 (Homo sapiens, UniProt Q9NR97); test: HEK reporter assay, HEK293 reporter cells expressing human TLR8; type: cell-based; settings: for EC50: HEK293 NFKB reporter cells expressing human TLR8, read-out: HEK293 hTLR8 EC50; for TLR8 activity after NHBoc modification of the dipropylamide, versus parent compound: Human HEK293 reporter cells, BZA-2 vs BZA-1, BZA-4 vs BZA-3 (FIG. 1A, 1C)
T2 construct: host or cells: HEK293 NF-kB reporter cells
T2 sequence (Q9NR97 27-1041): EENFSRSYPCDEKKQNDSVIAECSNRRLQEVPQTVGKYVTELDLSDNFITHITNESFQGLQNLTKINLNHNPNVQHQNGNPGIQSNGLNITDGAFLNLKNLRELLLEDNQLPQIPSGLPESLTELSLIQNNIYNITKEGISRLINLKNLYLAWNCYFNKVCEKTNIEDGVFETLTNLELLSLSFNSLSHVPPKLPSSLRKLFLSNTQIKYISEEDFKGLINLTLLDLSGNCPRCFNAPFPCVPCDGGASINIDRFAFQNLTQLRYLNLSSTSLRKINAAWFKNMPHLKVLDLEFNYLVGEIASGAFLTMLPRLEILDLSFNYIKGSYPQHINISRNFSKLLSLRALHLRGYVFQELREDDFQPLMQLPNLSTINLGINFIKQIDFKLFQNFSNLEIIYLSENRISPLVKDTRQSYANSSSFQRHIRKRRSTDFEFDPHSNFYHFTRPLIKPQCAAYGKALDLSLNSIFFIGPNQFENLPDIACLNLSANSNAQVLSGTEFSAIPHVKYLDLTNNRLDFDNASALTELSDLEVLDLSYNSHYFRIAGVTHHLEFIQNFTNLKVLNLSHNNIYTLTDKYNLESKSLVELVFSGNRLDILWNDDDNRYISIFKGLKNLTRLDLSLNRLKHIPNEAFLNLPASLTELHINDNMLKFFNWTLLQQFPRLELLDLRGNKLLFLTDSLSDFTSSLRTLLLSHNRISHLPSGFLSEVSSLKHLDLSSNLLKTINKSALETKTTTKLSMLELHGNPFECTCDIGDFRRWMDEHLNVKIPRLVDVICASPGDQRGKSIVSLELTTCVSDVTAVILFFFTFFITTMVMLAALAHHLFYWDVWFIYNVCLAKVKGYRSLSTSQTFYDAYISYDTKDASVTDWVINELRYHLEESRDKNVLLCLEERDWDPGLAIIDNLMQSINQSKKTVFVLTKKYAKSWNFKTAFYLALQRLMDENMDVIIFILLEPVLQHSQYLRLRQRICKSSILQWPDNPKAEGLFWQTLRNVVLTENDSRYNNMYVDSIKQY
Experimental: Activity against HEK293 NFKB reporter cells expressing human TLR7 or human TLR8 was measured according to Example 30.
as §1

Compound	EC50 (human TLR7)	EC50 (human TLR8)	TLR7 activity after NHBoc modification of the dipropylamide, versus parent compound (human TLR7)	TLR8 activity after NHBoc modification of the dipropylamide, versus parent compound (human TLR8)
CCCN(CCC)C(=O)C1=Cc2ccc(C(=O)Nc3cncc(CNC(=O)CNC(=O)OC(C)(C)C)c3)cc2N=C(NC(=O)OC(C)(C)C)C1 [8AmBza-22]	> 9 µM	> 9000 nM		
CCCN(CCCNC(=O)OC(C)(C)C)C(=O)C1=Cc2ccc(C(=O)Nc3cccc(COCCOCCNC(=O)OC(C)(C)C)c3)cc2N=C(N)C1 [8AmBza-8, tert-butyl N-[3-[[2-amino-8-[[3-[2-[2-(tert-butoxycarbonylamino)ethoxy]ethoxymethyl]phenyl]carbamoyl]-3H-1-benzazepine-4-carbonyl]-propyl-amino]propyl]carbamate]	> 9 µM	862 nM		
CCCN(CCCNC(=O)OC(C)(C)C)C(=O)C1=Cc2ccc(C(=O)Nc3cnc(NCCNC(=O)OC(C)(C)C)nc3)cc2N=C(N)C1 [8AmBza-7, tert-butyl N-[3-[[2-amino-8-[[2-[2-(tert-butoxycarbonylamino)ethylamino]pyrimidin-5-yl]carbamoyl]-3H-1-benzazepine-4-carbonyl]-propyl-amino]propyl]carbamate]	> 9 µM	1760 nM		
CCCN(CCC)C(=O)C1=Cc2ccc(C(=O)Nc3cnc4c(c3)CN(C(=O)OC(C)(C)C)CC4)cc2N=C(NC(=O)OC(C)(C)C)C1 [8AmBza-20]	8.13 µM	6080 nM		
CCCN(CCCNC(=O)OC(C)(C)C)C(=O)C1=Cc2ccc(NC(=O)c3ccccc3)cc2N=C(N)C1 [BZA-4, tert-butyl (3-(2-amino-8-benzamido-N-propyl-3H-benzo[b]azepine-4-carboxamido)propyl)carbamate, reference compound]			increases TLR 7 activity	does not affect TLR 8 activity
CCCN(CCC)C(=O)C1=Cc2ccc(C(=O)Nc3cncc(CNC(=O)CN)c3)cc2N=C(N)C1 [8AmBza-21]	> 9 µM			
CCCN(CCC)C(=O)C1=Cc2ccc(C(=O)Nc3cnc4c(c3)CNCC4)cc2N=C(N)C1 [8AmBza-19]		2180 nM		
CCCN(CCCNC(=O)OC(C)(C)C)C(=O)C1=Cc2ccc(-c3cccc(S(=O)(=O)N4CC(CO)C4)c3)cc2N=C(N)C1 [BZA-2, tert-butyl (3-(2-amino-8-(3-((3-(hydroxymethyl)azetidin-1-yl)sulfonyl)phenyl)-N-propyl-3H-benzo[b]azepine-4-carboxamido)propyl)carbamate, reference compound]			significantly increasing TLR7 activity	minimally perturbs TLR8 activity
CCCN(Cc1ccc(CNC(=O)OC(C)(C)C)cc1)C(=O)C1=Cc2ccc(C(=O)Nc3ccccc3)cc2N=C(N)C1 [8AmBza-17]	> 9 µM	782 nM		
CCCN(OCC)C(=O)C1=Cc2ccc(C(=O)Nc3ccc(N4CCC(C(=O)NCCN)CC4)nc3)cc2N=C(N)C1 [8AmBza-18, 2-amino-N8-[6-[4-(2-aminoethylcarbamoyl)-1-piperidyl]-3-pyridyl]-N4-ethoxy-N4-propyl-3H-1-benzazepine-4,8-dicarboxamide]	> 9 µM	5620 nM		
CCCN(CCC(F)(F)F)C(=O)C1=Cc2ccc(C(=O)Nc3ccccc3)cc2N=C(N)C1 [8AmBza-14]	> 9 µM	245 nM		
CCCN(Cc1ccc(CN)cc1)C(=O)C1=Cc2ccc(C(=O)Nc3ccccc3)cc2N=C(N)C1 [8AmBza-16]	> 9 µM	77 nM		
CCCN(CCCNC(=O)OC(C)(C)C)C(=O)C1=Cc2ccc(C(=O)Nc3ccccc3)cc2N=C(N)C1 [8AmBza-9, tert-butyl (3-(2-amino-8-(phenylcarbamoyl)-N-propyl-3H-benzo [b]azepine-4-carboxamido)propyl)carbamate]	> 9 µM	127 nM		
CCCN(OCC)C(=O)C1=Cc2ccc(C(=O)Nc3ccccc3)cc2N=C(N)C1 [8AmBza-15]	4.86 µM	34 nM		
